US8729082B2, “Substituted imidazoquinoxalines” (Bayer Intellectual Property GmbH, priority 2009, dated 2014)

Each molecule was assayed against T1, human kinase Mps-1 (Homo sapiens, UniProt P33981) (assay: Mps-1 kinase assay (HTRF)). Settings: lowATP; mean; read-out: Mps1 lowATP mean IC50.
T1 construct: N-terminally GST-tagged human full length recombinant Mps-1 kinase; purchased Invitrogen, Karslruhe, Germany PV4071
T1 sequence (P33981 1-857): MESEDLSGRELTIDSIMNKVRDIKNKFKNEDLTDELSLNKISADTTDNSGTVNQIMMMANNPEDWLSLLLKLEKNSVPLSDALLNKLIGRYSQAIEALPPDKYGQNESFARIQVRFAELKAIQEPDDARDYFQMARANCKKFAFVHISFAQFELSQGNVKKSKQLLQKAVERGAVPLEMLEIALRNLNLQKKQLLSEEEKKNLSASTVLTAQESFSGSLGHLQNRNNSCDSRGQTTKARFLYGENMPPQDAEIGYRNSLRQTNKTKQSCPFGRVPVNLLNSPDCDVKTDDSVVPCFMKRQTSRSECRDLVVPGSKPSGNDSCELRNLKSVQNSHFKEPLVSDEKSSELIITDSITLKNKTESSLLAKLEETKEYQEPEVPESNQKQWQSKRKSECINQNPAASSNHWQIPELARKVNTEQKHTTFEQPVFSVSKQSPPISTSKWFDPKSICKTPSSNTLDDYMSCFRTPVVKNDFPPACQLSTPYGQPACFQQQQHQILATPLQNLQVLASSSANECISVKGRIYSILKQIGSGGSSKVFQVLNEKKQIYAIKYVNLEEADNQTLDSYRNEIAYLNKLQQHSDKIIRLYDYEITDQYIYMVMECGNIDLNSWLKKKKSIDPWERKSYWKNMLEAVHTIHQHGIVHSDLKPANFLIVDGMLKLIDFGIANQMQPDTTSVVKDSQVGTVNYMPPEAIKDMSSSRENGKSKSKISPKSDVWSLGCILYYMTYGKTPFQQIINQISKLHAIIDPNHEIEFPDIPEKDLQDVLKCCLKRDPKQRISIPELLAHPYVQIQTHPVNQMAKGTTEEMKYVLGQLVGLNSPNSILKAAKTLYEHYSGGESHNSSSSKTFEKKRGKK
Type: biochemical
Method in brief: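 HTRF readout: EDTA-stopped reactions incubated 1 h with europium anti-phospho(Ser/Thr) antibody and streptavidin-XLent, emission ratio 665/620 nm after 350 nm excitation. Kinase step: compound pre-bound 15 min to ~1 nM GST-Mps-1, then 60 min at 22 °C with ATP and biotin-peptide substrate; inhibition scaled between no-inhibitor (0%) and no-enzyme (100%) controls.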

IC50 | SMILES
0.26 µM | CNC(=O)Nc1ccc(-c2cnc3c(NCc4ccncc4)nc4cc(C)c(C)cc4n23)cc1 [Example 2-172, 1-(4-{7,8-dimethyl-4-[(pyridin-4-ylmethyl)amino]imidazo[1,2-a]quinoxalin-1-yl}phenyl)-3-methylurea]
0.0359 µM | CC(C)CCNc1nc2ccc(F)cc2n2c(-c3ccc(C(=O)NC4CC4)cc3)cnc12 [Example 2-43, N-cyclopropyl-4-{8-fluoro-4-[(3-methylbutyl)amino]imidazo[1,2-a]quinoxalin-1-yl}benzamide]
15.3 µM | CC(C)CNc1nc2ccccc2n2c(-c3ccc(C(=O)NCCCN4CCCC4=O)cc3)cnc12 [Example 3-5, 4-{4-[(2-methylpropyl)amino]imidazo[1,2-a]quinoxalin-1-yl}-N-[3-(2-oxopyrrolidin-1-yl)propyl]benzamide]
5.83 µM | N#Cc1ccc2c(c1)nc(NCCC(N)=O)c1ncc(-c3ccc(C(=O)NC4CC4)c(Cl)c3)n12 [Example 2-248, 4-{4-[(3-amino-3-oxopropyl)amino]-7-cyanoimidazo[1,2-a]quinoxalin-1-yl}-2-chloro-N-cyclopropylbenzamide]
10.4 µM | CC(C)CNc1nc2ccccc2n2c(-c3cc[nH]n3)cnc12 [Example 1-43, N-(2-methylpropyl)-1-(1H-pyrazol-3-yl)imidazo[1,2-a]quinoxalin-4-amine]
12.8 µM | CNC(=O)Nc1ccc(-c2cnc3c(NCCCN4CCCC4=O)nc4ccc(F)cc4n23)cc1 [Example 2-60, 1-[4-(8-fluoro-4-{[3-(2-oxopyrrolidin-1-yl)propyl]amino}imidazo[1,2-a]quinoxalin-1-yl)phenyl]-3-methylurea]
0.541 µM | CC(=O)NCCNc1nc2cc(C)c(C)cc2n2c(-c3ccc(C(=O)NC4CC4)c(Cl)c3)cnc12 [Example 2-188, 4-(4-{[2-(acetylamino)ethyl]amino}-7,8-dimethylimidazo[1,2-a]quinoxalin-1-yl)-2-chloro-N-cyclopropylbenzamide]
8.19 µM | Cc1ccc(-c2cnc3c(NCC(C)C)nc4ccccc4n23)cn1 [Example 1-45, N-(2-methylpropyl)-1-(6-methylpyridin-3-yl)imidazo[1,2-a]quinoxalin-4-amine]
17.8 µM | CNC(=O)Nc1ccc(-c2cnc3c(NCC(O)CO)nc4cc(C#N)ccc4n23)cc1 (stereo not drawn) [Example 2-233, 1-(4-{7-cyano-4-[(2,3-dihydroxypropyl)amino]imidazo[1,2-a]quinoxalin-1-yl}phenyl)-3-methylurea]
0.0412 µM | C#CCNC(=O)c1ccc(-c2cnc3c(NCC(C)C)nc4ccccc4n23)cc1 [Example 3-13, 4-{4-[(2-methylpropyl)amino]imidazo[1,2-a]quinoxalin-1-yl}-N-(prop-2-yn-1-yl)benzamide]
1.42 µM | CC(C)CNc1nc2ccccc2n2c(-c3ccc(C(=O)NC4(c5ccccn5)CC4)cc3)cnc12 [Example 3-25, 4-{4-[(2-methylpropyl)amino]imidazo[1,2-a]quinoxalin-1-yl}-N-[1-(pyridin-2-yl)cyclopropyl]benzamide]
1.79 µM | CC(C)CNc1nc2ccccc2n2c(-c3ccc(C(=O)NCCO)cc3)cnc12 [Example 3-4, N-(2-hydroxyethyl)-4-{4-[(2-methylpropyl)amino]imidazo[1,2-a]quinoxalin-1-yl}benzamide]
1.05 µM | Cn1ccc(Nc2nc3ccccc3n3c(-c4ccc(C(=O)NC5CC5)cc4)cnc23)n1 [Example 2-37, N-cyclopropyl-4-{4-[(1-methyl-1H-pyrazol-3-yl)amino]imidazo[1,2-a]quinoxalin-1-yl}benzamide]
4.32 µM | CNC(=O)Nc1ccc(-c2cnc3c(NCCO)nc4cc(C#N)ccc4n23)cc1 [Example 2-223, 1-(4-{7-cyano-4-[(2-hydroxyethyl)amino]imidazo[1,2-a]quinoxalin-1-yl}phenyl)-3-methylurea]
19.7 µM | CCN(CC)C(=O)c1ccc(-c2cnc3c(NCC(C)C)nc4ccccc4n23)cc1 [Example 3-3, N,N-diethyl-4-{4-[(2-methylpropyl)amino]imidazo[1,2-a]quinoxalin-1-yl}benzamide]
